Read-outs that look alike come from different tables or passages of the source.
Legend:
VR1 [1] = molecular target: T1, VR1 (Rattus norvegicus, UniProt O35433); test: biochemical; type: binding
T1 construct: expressed in transfected cells; host or cells: Chinese Hamster Ovary cells (CHO, ATCC CCL-61), Tet-off inducible expression

Male Sprague-Dawley rat = conditions: in vivo
Male ICR mice = test: animal or person; type: in vivo; conditions: for ED50: Mus musculus, ip, read-out: Writhing Test (ED50 = μG/KG); for Relative effect (fold stronger than capsaicin): mouse, in vivo
VR1 [2] = molecular target: T1, VR1; test: cell-based
[3] = read-out: Binding Affinity (Ki = nM)

T1 sequence (O35433 whole entry): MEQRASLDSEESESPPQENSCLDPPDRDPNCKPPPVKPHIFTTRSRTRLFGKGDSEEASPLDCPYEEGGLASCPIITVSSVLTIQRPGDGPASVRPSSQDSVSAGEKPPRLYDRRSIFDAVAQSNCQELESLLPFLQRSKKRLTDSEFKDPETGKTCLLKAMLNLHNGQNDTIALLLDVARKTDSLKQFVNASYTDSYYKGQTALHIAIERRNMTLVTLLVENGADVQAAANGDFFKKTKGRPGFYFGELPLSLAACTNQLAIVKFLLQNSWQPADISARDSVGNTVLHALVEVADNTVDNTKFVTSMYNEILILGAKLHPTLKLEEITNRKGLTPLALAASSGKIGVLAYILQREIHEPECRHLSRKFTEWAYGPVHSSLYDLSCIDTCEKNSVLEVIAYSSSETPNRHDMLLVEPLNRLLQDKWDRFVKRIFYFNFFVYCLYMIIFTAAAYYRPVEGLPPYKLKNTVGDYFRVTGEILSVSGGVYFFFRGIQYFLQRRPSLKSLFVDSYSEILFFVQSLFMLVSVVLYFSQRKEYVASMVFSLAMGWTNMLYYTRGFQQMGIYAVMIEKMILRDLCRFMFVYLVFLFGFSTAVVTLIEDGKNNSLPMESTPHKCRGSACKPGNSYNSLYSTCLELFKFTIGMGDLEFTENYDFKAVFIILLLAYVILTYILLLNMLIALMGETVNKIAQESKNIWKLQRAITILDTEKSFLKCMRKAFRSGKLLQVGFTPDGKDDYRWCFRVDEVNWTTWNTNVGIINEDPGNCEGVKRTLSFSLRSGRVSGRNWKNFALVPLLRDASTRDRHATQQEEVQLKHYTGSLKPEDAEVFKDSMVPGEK

Row | SMILES | Ki (VR1 [1]) [nM] | MPP (moderate pain-producing potency) (Male Sprague-Dawley rat) [µg/mL] | RPP (relative pain-producing potency) (Male Sprague-Dawley rat) | ED50 (Male ICR mice) [µg/kg] | Relative effect (fold stronger than capsaicin) (Male ICR mice) | other results
1 | COc1cc(CNC(=S)NC(COC(=O)C(C)(C)C)Cc2ccc(C(C)(C)C)cc2)ccc1OCCN (stereo not shown) [Compound 75, N-[3-(4-tert-Butylphenyl)-1-pivaloyloxy-2-propyl]-N′-[4-(2-aminoethoxy)-3-methoxybenzyl]thiourea] | 341 | 47 | ~3.4 | 0.00061 | – | –
2 | COc1cc(CNC(=S)NC(CCc2ccc(C)c(C)c2)COC(=O)C(C)(C)C)ccc1O (stereo not shown) [Compound 64, N-[4-(3,4-Dimethylphenyl)-1-pivaloyloxy-2-butyl]-N′-[4-hydroxy-3-methoxybenzyl]thiourea] | 244 | – | – | – | – | –
3 | COc1cc(CNC(=S)NC(COC(=O)C(C)(C)C)Cc2ccc(C(C)(C)C)cc2)ccc1O (stereo not shown) [Compound 63, N-[3-(4-tert-Butylphenyl)-1-pivaloyloxy-2-propyl]-N′-[4-hydroxy-3-methoxybenzyl]thiourea] | 34.6 | – | – | 0.00036 | – | –
4 | COc1cc(CC(=O)NCC(CCc2ccc(C)c(C)c2)COC(=O)C(C)(C)C)ccc1O (stereo not shown) [Compound 34, N-[4-(3,4-Dimethylphenyl)-2-(pivaloyloxymethyl)butyl]-2-[4-hydroxy-3-methoxyphenyl]acetamide] | 153 | – | – | 0.934 | 1.4 | EC50 (VR1 [2]): 0.784 nM; fold stronger effect than JYL-273 (45Ca influx EC50) (VR1 [2]): 4 fold; fold stronger effect than LJO-198 (45Ca influx EC50) (VR1 [2]): 16 fold; fold stronger effect than capsaicin (45Ca influx EC50) (VR1 [2]): 57 fold
5 | COc1cc(CNC(=S)NCC(COC(=O)C(C)(C)C)Cc2ccc(C(C)(C)C)cc2)ccc1O (stereo not shown) [JYL-273, reference compound] | – | 23 | 7 | 0.107 | – | Ki (VR1 [1]; [3]): 6.35 nM
6 | COc1cc(CNC(=S)NC(COC(=O)C(C)(C)C)Cc2ccc(C)c(C)c2)ccc1O (stereo not shown) [Compound 62, N-[3-(3,4-Dimethylphenyl)-1-pivaloyloxy-2-propyl]-N′-[4-hydroxy-3-methoxybenzyl]thiourea] | 45.3 | 11.57 | 14 | 0.006 | 224 | –
7 | COc1cc(COC(=S)NCc2ccc(C(C)(C)C)cc2)ccc1O [Compound 147, N-(4-tert-Butylbenzyl)-O-(4-hydroxy-3-methoxybenzyl)thiocarbamate] | 1940 | – | – | – | – | –
8 | COc1cc(CNC(=S)NC(COC(=O)C(C)(C)C)Cc2ccc(C)c(C)c2)ccc1OCCN (stereo not shown) [Compound 74, N-[3-(3,4-Dimethylphenyl)-1-pivaloyloxy-2-propyl]-N′-[4-(2-aminoethoxy)-3-methoxybenzyl]thiourea] | – | 18.02 | – | 3e-05 | – | –
9 | COc1cc(CC(=O)NCC(COC(=O)C(C)(C)C)Cc2ccc(C)c(C)c2)ccc1OCCN (stereo not shown) [MSK-195, reference compound] | 603 | 14.9 | 11 | 1.17 | 1.1 | –
10 | COc1cc(CC(=O)NCC(CCc2ccc(C(C)(C)C)cc2)COC(=O)C(C)(C)C)ccc1O (stereo not shown) [Compound 35, N-[4-(4-tert-Butylphenyl)-2-(pivaloyloxymethyl)butyl]-2-[4-hydroxy-3-methoxyphenyl]acetamide] | 36.3 | – | – | – | – | –
11 | COc1cc(CC(=O)NCC(CCc2ccc(C)c(C)c2)COC(=O)C(C)(C)C)ccc1OCCN (stereo not shown) [Compound 38, N-[4-(3,4-Dimethylphenyl)-2-(pivaloyloxymethyl)butyl]-2-[4-(2-aminoethoxy)-3-methoxyphenyl]acetamide] | 855 | 29 | ~5.5 | 0.076 | 18 | –
12 | COc1cc(CNC(=S)NCC(CCc2ccc(C(C)(C)C)cc2)COC(=O)C(C)(C)C)ccc1O (stereo not shown) [Compound 29, N-[4-tert-Butylphenyl-2-(pivaloyloxymethyl)butyl]-N′-[4-hydroxy-3-methoxybenzyl]thiourea] | 18.3 | – | – | – | – | –
13 | COc1cc(CNC(=O)CCCC/C=C/C(C)C)ccc1O [Capsaicin, 8-methyl-N-vanillyl-6-nonenamides, reference compound] | – | – | – | 1.34 | – | –
14 | COc1cc(CC(=O)NCC(COC(=O)C(C)(C)C)Cc2ccc(C)c(C)c2)ccc1O (stereo not shown) [LJO-198, reference compound] | 157 | – | – | 0.0235 | 57 | –
15 | COc1cc(CNC(=S)OCc2ccc(C(C)(C)C)cc2)ccc1O [Compound 132, O-(4-tert-Butylbenzyl)-N-(4-hydroxy-3-methoxybenzyl) thiocarbamate] | 1960 | – | – | – | – | –
16 | COc1cc(COC(=S)NCC(COC(=O)C(C)(C)C)Cc2ccc(C)c(C)c2)ccc1O (stereo not shown) [Compound 140, N-[2-(3,4-Dimethylbenzyl)-3-(pivaloyloxy)propyl]-O-(4-hydroxy-3-methoxybenzyl)thiocarbamate] | 156 | – | – | – | – | EC50 (VR1 [2]): 2.4 nM
17 | COc1cc(CNC(=S)NCC(COC(=O)C(C)(C)C)Cc2ccc(C)c(C)c2)ccc1O (stereo not shown) [JYL-79, reference compound] | – | 1.7 | 94 | 0.161 | 8 | Ki (VR1 [1]; [3]): 17.4 nM
18 | COc1cc(CNC(=S)NCC(CCc2ccc(C)c(C)c2)COC(=O)C(C)(C)C)ccc1O (stereo not shown) [Compound 28, N-[4-(3,4-Dimethylphenyl)-2-(pivaloyloxymethyl)butyl]-N′-[4-hydroxy-3-methoxybenzyl]thiourea] | 24.9 | – | – | – | – | –
19 | COc1cc(CNC(=S)OCC(COC(=O)C(C)(C)C)Cc2ccc(C)c(C)c2)ccc1O (stereo not shown) [Compound 125, N-(4-hydroxy-3-methoxybenzyl)-O-[2-(3,4-Dimethylbenzyl)-3-(pivaloyloxy)propyl]thiocarbamate] | 143 | – | – | – | – | –

— patent US6872748B2 (priority 2001, dated 2005)
